The record followed here is patent US20140228349A1, “5,7-SUBSTITUTED-IMIDAZO[1,2-C]PYRIMIDINES” (Array BioPharma Inc., priority 2011, published 2014).

Format in all cases: biochemical
One experiment has as its target T1, JAK3 (Homo sapiens, UniProt P52333).
T1 construct: purchased Invitrogen Corporation, Carlsbad, Calif; IVGN PV4080
T1 sequence (P52333 1-1124): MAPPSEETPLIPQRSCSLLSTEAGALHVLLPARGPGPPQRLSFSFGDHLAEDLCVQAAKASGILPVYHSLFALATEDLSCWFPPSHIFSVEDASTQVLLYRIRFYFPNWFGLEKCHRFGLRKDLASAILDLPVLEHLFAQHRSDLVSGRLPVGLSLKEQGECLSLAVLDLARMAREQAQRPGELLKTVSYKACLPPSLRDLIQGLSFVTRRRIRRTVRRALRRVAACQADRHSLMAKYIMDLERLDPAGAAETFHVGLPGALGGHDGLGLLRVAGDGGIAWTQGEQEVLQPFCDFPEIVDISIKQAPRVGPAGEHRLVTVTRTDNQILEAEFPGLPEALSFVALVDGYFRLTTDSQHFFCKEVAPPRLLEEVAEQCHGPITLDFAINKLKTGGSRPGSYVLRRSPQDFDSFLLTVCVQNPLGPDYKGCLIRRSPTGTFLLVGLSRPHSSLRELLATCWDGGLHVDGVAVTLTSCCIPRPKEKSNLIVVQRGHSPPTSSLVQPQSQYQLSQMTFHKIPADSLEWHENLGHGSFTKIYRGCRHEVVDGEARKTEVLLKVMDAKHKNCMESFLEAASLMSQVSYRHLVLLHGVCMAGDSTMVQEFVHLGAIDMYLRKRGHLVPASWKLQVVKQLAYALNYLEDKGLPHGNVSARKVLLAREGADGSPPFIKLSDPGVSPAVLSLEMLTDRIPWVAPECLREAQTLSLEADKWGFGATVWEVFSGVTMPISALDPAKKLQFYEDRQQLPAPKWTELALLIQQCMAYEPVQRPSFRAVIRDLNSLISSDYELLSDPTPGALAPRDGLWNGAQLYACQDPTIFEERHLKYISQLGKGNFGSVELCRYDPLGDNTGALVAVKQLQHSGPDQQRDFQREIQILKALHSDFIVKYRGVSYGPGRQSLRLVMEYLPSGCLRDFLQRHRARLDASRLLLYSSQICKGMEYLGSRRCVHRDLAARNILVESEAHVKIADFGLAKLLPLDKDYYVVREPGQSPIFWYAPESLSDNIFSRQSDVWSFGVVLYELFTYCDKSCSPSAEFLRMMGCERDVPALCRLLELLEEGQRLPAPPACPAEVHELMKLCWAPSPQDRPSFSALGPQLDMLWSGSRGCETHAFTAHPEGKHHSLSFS
In words: JAK3 Inhibition Assay (Omnia kinase fluorescence peptide substrate). The following applies: averaged IC50 ranges; 10 μM (Km app) or 1 mM ATP, 2.5 nM JAK3. In a few lines: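 IC50 is the concentration giving 50 percent of control on a 4-parameter logistic fit of 10-point, 3-fold dilutions from a 10 μM top dose, at 2% final DMSO. Kinetic Sox fluorescence (360/485 nm) was monitored every 50 s for 45 min. Mix: JAK3 2.5 nM, Omnia Y7 peptide 10 μM, ATP 10 μM (Km app) or 1 mM, in HEPES pH 7.4 buffer with MgCl2, Triton X-100 and DTT.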

For experiment [1], the system named is Tyk2, JAK1, JAK2 and JAK3. In words: in vitro assays (Examples A, B, C and D) taken together. To be noted: Reference Examples; statement in words. The source says:
The assays described in Examples A, B, C and D for the determination of Tyk2, JAK1, JAK2 and JAK3 kinase activity, respectively, utilized the Omnia® Kinase fluorescence peptide substrate-based technology (Invitrogen). The specific components of the assay mixture are described in Examples A, B, C and D. In these assays, Mg^2+ is chelated upon phosphorylation of the Omnia peptide by the kinase to form a bridge between the chelation-enhanced fluorophore Sox and the phosphate, resulting in an increase in fluorescence emission at 485 nm when excited at […]. The reactions were therefore read at excitation 360 nm and emission was measured at 485 nm every 50 seconds for 45 minutes using a PerkinElmer EnVision Multilabel Plate Reader.
The final buffer conditions for Tyk2, JAK1, JAK2, and JAK3 assays were as follows: 25 mM HEPES, pH 7.4, 10 mM MgCl2, 0.01% Triton X-100 and 1 mM DTT.
Compounds were prepared at 50× the final concentration in DMSO by conducting 3-fold serial dilutions from a 500-μM intermediate dilution to give a 10-point dosing curve having a high dose of 10 μM. Two-μL aliquots of these were transferred to a fresh plate for a ten-fold intermediate dilution with assay buffer. Five-μL aliquots of the diluted compounds were then transferred to 20-μL of assay mixtures described in Examples A, B, C and D for a final concentration of DMSO of 2%. A standard or reference compound was typically included on each assay plate to validate that plate. For each plate, percent of control (POC) values were calculated for each well according to the following equation: […]
Compounds of Formula I were screened for their ability to inhibit Tyk2 using the general enzyme inhibition assay method, in which the assay mixture contained 10 μM (Km app) or 1 mM ATP, 8 μM Omnia® Y12 peptide (Catalog #IVGN KPZ3121C; Invitrogen Corporation, Carlsbad, Calif.) and 2 nM Tyk2 in a total volume of 20 μL. Human Tyk2 kinase domain, comprising amino acids 886 to 1187 with 10 additional histidine residues (histidine tag) on the carboxy terminus, was expressed and purified from bacculovirus in-house at Array BioPharma Inc. (Boulder, Colo.). The histidine tag was cleaved after purification using standard conditions.
Compounds of Formula I were screened for their ability to inhibit JAK1 using the general enzyme inhibition assay method, in which the assay mixture contained 40 μM (Km app) or 1 mM ATP, 8 μM Omnia® Y12 peptide (Catalog #IVGN KPZ3121C; Invitrogen Corporation, Carlsbad, Calif.) and 15 nM JAK1 in a total volume of 20 μL. JAK1 was purchased from Invitrogen Corporation, Carlsbad, Calif. (catalog #IVGN PV4775).
Compounds of Formula I were screened for their ability to inhibit JAK2 using the general enzyme inhibition assay method, in which the assay mixture contained 25 μM (Km app) or 1 mM ATP, 10 μM Omnia® Y7 peptide (Catalog #IVGN KNZ3071C, Invitrogen Corporation, Carlsbad, Calif.) and 5 nM JAK2 in a total volume of 20 μL. JAK2 was purchased from Invitrogen Corporation, Carlsbad, Calif. (catalog #IVGN PV4288).
Compounds of Formula I were screened for their ability to inhibit JAK3 using the general enzyme inhibition assay method, in which the assay mixture contained 10 μM (Km app) or 1 mM ATP, 10 μM Omnia® Y7 peptide (Catalog #IVGN KNZ3071C, Invitrogen Corporation, Carlsbad, Calif.) and 2.5 nM JAK3 in a total volume of 20 μL. JAK3 was purchased from Invitrogen Corporation, Carlsbad, Calif. (catalog #IVGN PV4080).

The next experiment concerns the target T2, JAK2 (Homo sapiens, UniProt O60674).
T2 construct: purchased Invitrogen Corporation, Carlsbad, Calif; IVGN PV4288
In words: JAK2 Inhibition Assay (Omnia kinase fluorescence peptide substrate). To be noted: averaged IC50 ranges; 25 μM (Km app) or 1 mM ATP, 5 nM JAK2.

The target in another experiment is T3, JAK1 (Homo sapiens, UniProt P23458).
T3 construct: purchased Invitrogen Corporation, Carlsbad, Calif; IVGN PV4775
T3 sequence (P23458 whole entry): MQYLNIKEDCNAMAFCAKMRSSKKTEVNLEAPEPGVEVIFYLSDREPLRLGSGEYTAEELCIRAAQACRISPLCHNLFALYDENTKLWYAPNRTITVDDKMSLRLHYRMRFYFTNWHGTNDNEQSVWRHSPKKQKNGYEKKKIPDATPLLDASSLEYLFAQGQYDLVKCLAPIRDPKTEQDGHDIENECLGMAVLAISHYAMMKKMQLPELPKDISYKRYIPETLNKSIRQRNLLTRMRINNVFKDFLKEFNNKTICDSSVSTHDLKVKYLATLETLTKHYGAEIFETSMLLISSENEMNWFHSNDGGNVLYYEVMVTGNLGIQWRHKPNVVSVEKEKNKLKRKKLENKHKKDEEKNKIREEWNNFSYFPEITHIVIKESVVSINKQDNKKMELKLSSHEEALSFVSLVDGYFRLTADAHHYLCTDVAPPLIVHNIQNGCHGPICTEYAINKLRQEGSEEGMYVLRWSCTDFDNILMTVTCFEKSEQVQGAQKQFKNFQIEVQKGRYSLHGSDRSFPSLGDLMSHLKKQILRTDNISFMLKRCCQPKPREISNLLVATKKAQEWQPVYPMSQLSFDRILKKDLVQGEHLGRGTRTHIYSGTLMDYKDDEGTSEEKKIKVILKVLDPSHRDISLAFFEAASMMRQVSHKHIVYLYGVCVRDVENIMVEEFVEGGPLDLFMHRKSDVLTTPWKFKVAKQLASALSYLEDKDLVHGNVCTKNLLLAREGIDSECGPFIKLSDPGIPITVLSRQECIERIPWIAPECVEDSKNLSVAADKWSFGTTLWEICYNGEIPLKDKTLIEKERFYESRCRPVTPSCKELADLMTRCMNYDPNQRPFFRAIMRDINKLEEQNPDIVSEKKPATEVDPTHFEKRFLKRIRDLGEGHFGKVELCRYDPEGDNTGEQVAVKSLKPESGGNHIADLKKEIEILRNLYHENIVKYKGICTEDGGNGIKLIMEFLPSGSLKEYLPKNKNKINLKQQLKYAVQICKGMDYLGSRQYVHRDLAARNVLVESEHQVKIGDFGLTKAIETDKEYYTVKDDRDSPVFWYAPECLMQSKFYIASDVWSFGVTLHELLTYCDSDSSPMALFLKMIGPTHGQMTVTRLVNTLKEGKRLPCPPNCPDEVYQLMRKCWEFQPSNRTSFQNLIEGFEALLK
In words: JAK1 Inhibition Assay (Omnia kinase fluorescence peptide substrate). To be noted: averaged IC50 ranges; 40 μM (Km app) or 1 mM ATP, 15 nM JAK1. In a few lines:
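15 nM JAK1, 8 μM Omnia Y12 peptide, 40 μM (Km app) or 1 mM ATP; 25 mM HEPES pH 7.4, 10 mM MgCl2, 2% DMSO. Fluorescence (ex 360/em 485 nm) read every 50 s over 45 min. IC50 by 4-parameter fit of percent of control, top dose 10 μM.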

The next experiment concerns the target T4, Human Tyk2 kinase domain (Homo sapiens, UniProt P29597).
T4 construct: comprising amino acids 886 to 1187; His10 (10 histidine residues) (C, cleaved yes); made in house
T4 sequence (P29597 886-1187): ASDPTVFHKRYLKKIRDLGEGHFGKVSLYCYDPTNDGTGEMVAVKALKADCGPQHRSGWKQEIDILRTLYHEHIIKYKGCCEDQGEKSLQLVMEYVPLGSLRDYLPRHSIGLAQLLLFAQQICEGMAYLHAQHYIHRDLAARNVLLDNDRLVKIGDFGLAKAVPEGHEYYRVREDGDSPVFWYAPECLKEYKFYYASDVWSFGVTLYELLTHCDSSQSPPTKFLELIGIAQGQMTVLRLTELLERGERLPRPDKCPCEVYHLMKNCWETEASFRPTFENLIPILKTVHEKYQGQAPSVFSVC
In words: Tyk2 Inhibition Assay (Omnia kinase fluorescence peptide substrate). The following applies: averaged IC50 ranges; 10 μM (Km app) or 1 mM ATP, 2 nM Tyk2. In a few lines:
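Phosphorylation of 8 μM Omnia Y12 peptide followed kinetically by Sox fluorescence, ex 360/em 485 nm, every 50 s for 45 min. Enzyme: 2 nM Tyk2 kinase domain (aa 886–1187, His tag removed); ATP at 10 μM (Km app) or 1 mM; buffer HEPES pH 7.4 with MgCl2, Triton X-100, DTT. 10-point curves up to 10 μM, IC50 from 4-parameter logistic fit.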

T2 sequence (O60674 whole entry): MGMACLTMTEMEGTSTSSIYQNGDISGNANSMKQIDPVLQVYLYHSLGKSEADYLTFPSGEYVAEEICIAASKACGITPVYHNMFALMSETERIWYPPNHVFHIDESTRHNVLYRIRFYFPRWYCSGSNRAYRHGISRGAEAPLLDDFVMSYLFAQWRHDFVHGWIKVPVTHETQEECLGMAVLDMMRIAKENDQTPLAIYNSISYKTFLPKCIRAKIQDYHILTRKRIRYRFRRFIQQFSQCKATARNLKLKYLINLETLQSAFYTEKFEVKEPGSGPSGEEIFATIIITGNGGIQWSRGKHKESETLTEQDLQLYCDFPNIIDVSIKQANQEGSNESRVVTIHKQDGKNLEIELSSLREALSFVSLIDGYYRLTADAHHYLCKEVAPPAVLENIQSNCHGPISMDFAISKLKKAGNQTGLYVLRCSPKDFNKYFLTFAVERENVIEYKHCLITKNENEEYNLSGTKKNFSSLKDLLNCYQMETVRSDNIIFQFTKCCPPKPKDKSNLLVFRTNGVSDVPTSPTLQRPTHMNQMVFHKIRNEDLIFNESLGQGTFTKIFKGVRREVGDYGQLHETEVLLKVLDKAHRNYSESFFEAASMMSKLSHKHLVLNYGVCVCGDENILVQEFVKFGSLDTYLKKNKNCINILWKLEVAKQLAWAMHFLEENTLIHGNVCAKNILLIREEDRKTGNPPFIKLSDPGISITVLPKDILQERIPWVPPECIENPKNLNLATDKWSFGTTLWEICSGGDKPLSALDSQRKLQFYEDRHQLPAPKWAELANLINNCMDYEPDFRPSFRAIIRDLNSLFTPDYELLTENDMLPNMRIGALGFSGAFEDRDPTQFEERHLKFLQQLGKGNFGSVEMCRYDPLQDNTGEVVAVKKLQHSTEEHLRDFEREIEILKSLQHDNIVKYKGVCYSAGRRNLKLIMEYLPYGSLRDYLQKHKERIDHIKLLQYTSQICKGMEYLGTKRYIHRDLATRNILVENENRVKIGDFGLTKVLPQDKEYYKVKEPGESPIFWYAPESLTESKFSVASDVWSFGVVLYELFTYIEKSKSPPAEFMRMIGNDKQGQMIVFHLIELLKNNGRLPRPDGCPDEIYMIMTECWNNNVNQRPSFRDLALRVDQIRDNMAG

`COCCC(C1CCOC1)n1cc(-c2nc(-c3cnn(C)c3)cc3nccn23)cn1` (stereo not shown) [Example 75, 5-(1-(3-methoxy-1-(tetrahydrofuran-3-yl)propyl)-1H-pyrazol-4-yl)-7-(1-methyl-1H-pyrazol-4-yl)imidazo[1,2-c]pyrimidine]: the IC50 against JAK3, against JAK2, on JAK1 and on Human Tyk2 kinase domain was above 1000 nM throughout. For the same compound, the “activity in the in vitro assays” value in experiment [1] is listed as “weakly active”.

On to `CCN1CC(CCF)(n2cc(-c3nc(-c4cnn(C)c4)cc4nccn34)cn2)C1` [Example 84, 5-(1-(1-ethyl-3-(2-fluoroethyl)azetidin-3-yl)-1H-pyrazol-4-yl)-7-(1-methyl-1H-pyrazol-4-yl)imidazo[1,2-c]pyrimidine], for which the IC50 at JAK3, at JAK2, against JAK1 and against Human Tyk2 kinase domain was above 1000 nM throughout. In addition, in experiment [1], the “activity in the in vitro assays” value is “weakly active”.

Turning to `CCNC(=O)N1CC(CCF)(n2cc(-c3nc(-c4cnn(C)c4)cc4nccn34)cn2)C1` [Example 92, N-ethyl-3-(2-fluoroethyl)-3-(4-(7-(1-methyl-1H-pyrazol-4-yl)imidazo[1,2-c]pyrimidin-5-yl)-1H-pyrazol-1-yl)azetidine-1-carboxamide], the IC50 against JAK3, at JAK2, at JAK1 and against Human Tyk2 kinase domain was above 1000 nM each time. Moreover, the “activity in the in vitro assays” value in experiment [1] was “weakly active”.

Turning to `CN(C)C(=O)N1CC(CCF)(n2cc(-c3nc(-c4cnn(C)c4)cc4nccn34)cn2)C1` [Example 93, 3-(2-fluoroethyl)-N,N-dimethyl-3-(4-(7-(1-methyl-1H-pyrazol-4-yl)imidazo[1,2-c]pyrimidin-5-yl)-1H-pyrazol-1-yl)azetidine-1-carboxamide], the IC50 at JAK3, on JAK2, against JAK1 and at Human Tyk2 kinase domain was above 1000 nM throughout. In addition, the “activity in the in vitro assays” value in experiment [1] is “weakly active”.

For the compound `Cn1cc(-c2cc3nccn3c(-c3cnn(C4(CCF)CN(C(=O)C5CC5)C4)c3)n2)cn1` [Example 97, cyclopropyl(3-(2-fluoroethyl)-3-(4-(7-(1-methyl-1H-pyrazol-4-yl)imidazo[1,2-c]pyrimidin-5-yl)-1H-pyrazol-1-yl)azetidin-1-yl)methanone], the IC50 at JAK3, against JAK2, against JAK1 and at Human Tyk2 kinase domain was above 1000 nM throughout. Also, the “activity in the in vitro assays” value in experiment [1] is given as “weakly active”.

Regarding `COCCC1(n2cc(-c3nc(-c4cnn(C)c4)cc4nccn34)cn2)CN(S(=O)(=O)C(F)(F)F)C1` [Example 100, 5-(1-(3-(2-methoxyethyl)-1-((trifluoromethyl)sulfonyl)azetidin-3-yl)-1H-pyrazol-4-yl)-7-(1-methyl-1H-pyrazol-4-yl)imidazo[1,2-c]pyrimidine], the IC50 was 100 to 1000 nM on JAK3, 10 to 100 nM against JAK2, 10 to 100 nM on JAK1 and below 10 nM against Human Tyk2 kinase domain.

Consider `Cn1cc(-c2cc3nccn3c(-c3ccn([C@@H](C[C@@H](O)C(F)(F)F)C4CC4)c3)n2)cn1` [Example 101, (2R,4S)-4-cyclopropyl-1,1,1-trifluoro-4-(3-(7-(1-methyl-1H-pyrazol-4-yl)imidazo[1,2-c]pyrimidin-5-yl)-1H-pyrrol-1-yl)butan-2-ol], for which the IC50 at JAK3, on JAK2, against JAK1 and on Human Tyk2 kinase domain was 100 to 1000 nM each time.

On to `Cn1cc(-c2cc3nccn3c(-c3ccn([C@@H](C[C@H](O)C(F)(F)F)C4CC4)c3)n2)cn1` [Example 102, (2S,4S)-4-cyclopropyl-1,1,1-trifluoro-4-(3-(7-(1-methyl-1H-pyrazol-4-yl)imidazo[1,2-c]pyrimidin-5-yl)-1H-pyrrol-1-yl)butan-2-ol], for which the IC50 was above 1000 nM against JAK3, 100 to 1000 nM at JAK2, 100 to 1000 nM on JAK1 and 10 to 100 nM against Human Tyk2 kinase domain.

Usually IC50 stands for the concentration at which inhibition is half-maximal.
